Measurements: publication PMC2120756 (The Journal of Cell Biology, 1996)

Biological target: NHE-1 (Na+/H+ exchanger isoform 1) (Homo sapiens, UniProt P19634)
Experiment: BCECF pHi recovery from NH4Cl acid load
Format: cell-based

NHE-1 (Na+/H+ exchanger isoform 1), sequence (P19634 whole entry, canonical isoform): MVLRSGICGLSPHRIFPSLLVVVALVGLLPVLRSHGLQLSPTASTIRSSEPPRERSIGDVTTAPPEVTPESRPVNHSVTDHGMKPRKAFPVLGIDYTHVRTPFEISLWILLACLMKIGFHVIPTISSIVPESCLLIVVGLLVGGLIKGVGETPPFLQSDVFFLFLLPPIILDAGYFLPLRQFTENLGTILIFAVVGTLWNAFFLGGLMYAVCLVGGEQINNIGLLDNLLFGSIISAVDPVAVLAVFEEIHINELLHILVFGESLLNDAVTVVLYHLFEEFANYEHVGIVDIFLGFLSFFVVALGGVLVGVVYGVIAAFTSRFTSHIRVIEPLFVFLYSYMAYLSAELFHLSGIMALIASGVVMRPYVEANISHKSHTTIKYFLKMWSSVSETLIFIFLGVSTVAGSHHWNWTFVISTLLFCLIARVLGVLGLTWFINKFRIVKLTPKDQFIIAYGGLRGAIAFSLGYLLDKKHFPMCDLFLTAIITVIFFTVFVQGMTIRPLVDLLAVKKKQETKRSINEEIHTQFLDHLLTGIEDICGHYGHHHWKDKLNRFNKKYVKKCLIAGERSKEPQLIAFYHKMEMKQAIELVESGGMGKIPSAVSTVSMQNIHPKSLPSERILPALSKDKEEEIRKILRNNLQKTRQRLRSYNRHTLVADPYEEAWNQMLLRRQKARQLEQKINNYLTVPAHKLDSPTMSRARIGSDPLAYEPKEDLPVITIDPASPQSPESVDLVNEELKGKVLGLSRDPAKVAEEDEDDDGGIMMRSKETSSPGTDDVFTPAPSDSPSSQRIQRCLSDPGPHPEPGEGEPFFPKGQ

- IC50: ~10 nM
Compound: CS(=O)(=O)c1cc(C(=O)N=C(N)N)ccc1N1CCCCC1 [HOE694]
